{
  "source": "patent US11352350B2",
  "about": "“IRAK degraders and uses thereof” (Kymera Therapeutics, Inc., priority 2018, dated 2022)",
  "format_in_all_cases": "cell-based",
  "key": {"[1]": {"molecular_target": "IRAK4 (Homo sapiens (Human), UniProt Q9NWZ3)", "sequence (Q9NWZ3 whole entry)": "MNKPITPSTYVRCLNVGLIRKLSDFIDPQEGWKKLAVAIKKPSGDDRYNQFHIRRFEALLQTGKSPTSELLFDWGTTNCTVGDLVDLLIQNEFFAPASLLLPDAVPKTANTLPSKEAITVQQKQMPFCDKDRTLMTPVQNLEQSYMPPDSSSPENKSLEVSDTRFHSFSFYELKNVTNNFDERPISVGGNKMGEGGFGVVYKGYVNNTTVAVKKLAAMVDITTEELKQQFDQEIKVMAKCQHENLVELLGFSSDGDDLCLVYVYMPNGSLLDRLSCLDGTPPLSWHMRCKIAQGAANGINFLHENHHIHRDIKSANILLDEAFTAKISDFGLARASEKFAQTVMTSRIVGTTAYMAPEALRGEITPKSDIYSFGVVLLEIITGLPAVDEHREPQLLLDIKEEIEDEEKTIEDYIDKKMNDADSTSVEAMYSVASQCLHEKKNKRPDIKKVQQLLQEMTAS", "test": "IRAK4 degradation in human whole blood monocyte - flow cytometry", "conditions": "read-out: IRAK4 degradation in whole blood monocyte-Flow cytometry: Average external Abs IC50", "outline": "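Fresh heparinized human whole blood dosed (10-point, 5-fold, 0.1% DMSO) for 20 h or 4 h at 37 °C, then fixed, stained and IRAK4 MFI quantified by flow in CD14+ monocytes and CD14− lymphocytes. DC50 and Dmax via 4-parameter logistic fit normalized to DMSO and 10 μM control.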"}, "[2]": {"system": "TNFα", "test": "Human PBMC LPS TNFα assay", "conditions": "hPBMC, LPS stimulation, read-out: IRAK4 hPBMC LPS TNF-α inhibition: Average external-IC50", "procedure": "Human PBMC LPS TNFα assay. Frozen PBMCs were thawed into RPMI with 10% FBS/1% penicillin/streptomycin and same day plated into 96 well plates at 200,000 PBMC/[…] media per well. Compound plates were prepared in DMSO with D300 cassette as 8-point dose curves in duplicate, starting dose 2 μM, 5-fold. Compounds are added 200 nL into cells for final 200 μL per well. Compound and cells were incubated at 37° C., 5% CO2 for 20 hours. After twenty hours of pretreatment with the compounds, LPS (01 1 1:B4) (Sigma #L2637) was added at 100 ng/ml final concentration and PBMCs incubated an additional five hours at 37° C., 5% CO2. Following assay completion, PBMC plates were spun down at 2000 rpm for 10 minutes. 100 uL of supernatant was carefully removed and placed into a new 96 well Costar (#3879) plate and stored at −80° C. until further analysis. Meso scale Discovery (MSD) human V-plex assays were used to measure cytokine levels. On day of cytokine analysis, supernatant samples were thawed, diluted with V-plex diluent #2, and directly to MSD plates. Assay was further completed per standard manufacturer's protocol. Cytokine data was normalized to LPS stimulated and unstimulated controls. Prism Graphpad was used to generate IC50 using 4 parameter logistic regression curve, free-fit."}, "[3]": {"system": "TNFα", "test": "Human whole blood LPS TNFα assay", "conditions": "20 h pretreatment, LPS 5 h, read-out: IRAK4 human whole blood LPS TNFa inhibition: Average external-IC50", "outline": "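Fresh human whole blood pretreated 20 h at 37 °C with compound (8-point, 5-fold dilution from 2 μM start), then stimulated with 100 ng/ml LPS (final) for 5 h. Plasma TNFα quantified by MSD V-plex, normalised to stimulated and unstimulated controls; IC50 from 4-parameter logistic fit.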"}, "[4]": {"system": "SU-DHL6", "test": "SU-DHL6 viability, CTG", "conditions": "Homo sapiens, SU-DHL-6"}},
  "note": "Where two headings read alike, the source gives them in different places.",
  "data": [
    {"molecule": "CN(CCCOCCCc1cccc2c1n(C)c(=O)n2C1CCC(=O)NC1=O)C[C@H]1CC[C@H](n2cc(NC(=O)c3coc(-c4ccnc(NCC5CC5)c4)n3)c(C(F)F)n2)CC1", "note": "(mixture of isomers) [I-30, 2-[2-(Cyclopropylmethylamino)-4-pyridyl]-N-[3-(difluoromethyl)-1-[4-[[3-[3-[1-(2,6-dioxo-3-piperidyl)-3-methyl-2-oxo-benzimidazol-4-yl]propoxy]propyl-methyl-amino]methyl]cyclohexyl]pyrazol-4-yl] oxazole-4-carboxamide]", "values": [
      {"measurement": "IC50", "setting": "[1]", "result": "< 50", "unit": "nM"},
      {"measurement": "IC50", "setting": "[2]", "result": "50 to 100", "unit": "nM"},
      {"measurement": "IC50", "setting": "[3]", "result": "100 to 500", "unit": "nM"}
    ]},
    {"molecule": "CN(C[C@H]1CC[C@H](n2cc(NC(=O)c3coc(-c4ccnc(NCC5CC5)c4)n3)c(C(F)F)n2)CC1)C1CCN(Cc2cccc3c2n(C)c(=O)n3C2CCC(=O)NC2=O)CC1", "note": "(some centres unmarked) [I-75, 2-(2-((cyclopropylmethyl)amino)pyridin-4-yl)-N-(3-(difluoromethyl)-1-((1r,4r)-4-(((1-((1-(2,6-dioxopiperidin-3-yl)-3-methyl-2-oxo-2,3-dihydro-1H-benzo[d]imidazol-4-yl)methyl)piperidin-4-yl)(methyl)amino)methyl)cyclohexyl)-1H-pyrazol-4-yl)oxazole-4-carboxamide]", "values": [
      {"measurement": "IC50", "setting": "[4]; MYD88 WT Lines, read-out: SU-DHL6 Viability, CTG IC50", "result": 1600, "unit": "nM"},
      {"measurement": "IC50", "setting": "[4]; MYD88 WT, read-out: SU-DHL6 CTG IC50", "result": 1600, "unit": "nM"},
      {"measurement": "DC50", "setting": "[1]", "result": "50 to 100", "unit": "nM"},
      {"measurement": "IC50", "setting": "[2]", "result": "< 50", "unit": "nM"},
      {"measurement": "IC50", "setting": "[3]", "result": "> 1000", "unit": "nM"}
    ]}
  ]
}
